This is an account of results in patent publication US10183011B2, “Anti-depression compounds” (Board of Regents of the University of Texas System, priority 2009, dated 2019).

For data set [1], the system named is newborn neurons in the dentate gyrus. Kind of data set: BrdU pulse-chase and doublecortin staining with oral dosing for 30 days. It is filed as in vivo, mouse (C57/B6). The method, then: FIG. 10A and FIG. 10B: Example 45 Compound enhances the survival of newborn neurons in the dentate gyrus. […] (FIG. 10B) Example 45 Compound enhances hippocampal neurogenesis by promoting survival of newborn neurons. Three month old wild type C57/B6 male mice were exposed to orally-delivered Example 45 Compound or vehicle for 30 days (n=5 animals/group), administered a single pulse of BrdU via IP injection (150 mg/kg), and then sacrificed 1 hour, 1 day, 5 days or 30 days later for immunohistochemical detection of BrdU incorporation into cells localized in the subgranular layer of the dentate gyrus. […] In this longer-term trial, BrdU+ cells were observed both in the SGZ and the granular layer of the dentate gyrus.
The nature of the cells produced in the subgranular zone of the dentate gyrus was investigated when Example 45 Compound was administered as follows. Animals were exposed to oral administration of Example 45 Compound for 30 days. Brain tissue was then prepared for immunohistochemical staining with an antibody to doublecortin (DCX), a microtubule-associated protein that serves as a marker of neurogenesis in the dentate gyrus by virtue of transient expression in newly formed neurons, but not glial cells, between the timing of their birth and final maturation (Brown et al., 2003).
Example 45 Compound-mediated neurogenesis was next investigated to see whether it was attributable to increased cell proliferation or protection of newborn cells from cell death during the time between their birth and eventual incorporation into the granular layer of the dentate gyrus. This was accomplished by comparing the ability of Example 45 Compound to enhance either short- or long-term increases in the incorporation of BrdU in the dentate gyrus (FIG. 10B). Animals exposed to orally-delivered Example 45 Compound or vehicle for 30 days were administered a single pulse of BrdU via IP injection. Short-term effects on neuron birth were monitored by sacrificing animals one hour post-BrdU injection, followed by fixation of the tissue, sectioning and immunohistochemical detection of BrdU incorporation into cells localized in the subgranular layer of the dentate gyrus. […] It is hypothesized that these cells represent mature neurons that have migrated into the granular layer, completed the differentiation process, and incorporated themselves into the dentate gyrus as properly wired neurons. Observations supportive of this interpretation will be presented in a subsequent section of this document. In summary, these experiments give evidence that Example 45 Compound enhances the formation of neurons in the mature hippocampus, and that its mode of action would appear to take place at some point subsequent to their birth.

Another data set relates to HeLa cells. The data set can be described thus: Toxicity to HeLa cells. It is filed as cell-based.
Data set [2] has as its system hippocampal neurogenesis in the DG. The data set can be described thus: Comparison of P7C3 compounds and antidepressant drugs: DG BrdU labeling after i.c.v. infusion. It is filed as in vivo, mouse. To be noted: 10 μM i.c.v. for 7 days. From the text: The neuroprotective efficacies of both P7C3 and P7C3-A20 were next compared to currently marketed antidepressant medications, using screening conditions identical to those by which P7C3 was originally discovered. This experiment was based on the antidepressant actions of P7C3 and P7C3-A20 characterized here, and the dependence on hippocampal neurogenesis for behavioral efficacy of some marketed antidepressant medications in mice.
Proneurogenic efficacies in the DG of P7C3 and P7C3A20 were compared to those of vehicle (artificial cerebrospinal fluid) and several marketed antidepressant compounds (Sigma-Aldrich, St. Louis, Mo.) according to established methods. In brief, mice were housed individually in cages without running wheels or any form of environmental enrichment, in order to create an environment predicted to have as low of a baseline level of hippocampal neurogenesis as possible. Compounds (10 μM, i.c.v.) were administered for 7 days via subcutaneously implanted Alzet osmotic minipumps connected to a cannula directed into the left lateral ventricle, with implantation day designated as day 0. Starting on day 1, mice also received daily injections of BrdU (50 mg/kg, i.p.) at 9 am daily, for 6 days. Twenty four hours after the sixth BrdU injection, mice were transcardially perfused as described above.
Background: Dividing cells build labelled thymidine or BrdU into new DNA.

Data set [3] has as its system Ghsr-null and wild-type mice. The data set can be described thus: Caloric restriction: DG apoptosis (AC3) and forced swim test. It is filed as in vivo, mouse. The source says:
FIG. 42. Effects of P7C3 on caloric restriction-induced DG cell survival and antidepressant-like behavior, as measured by FST. (a) Protocol schematic. (b, c) AC3-immunoreactive cell counts in the DG of calorie-restricted and ad libitum-fed mice treated with P7C3 vs. vehicle. (d, e) FST immobility time. Group sizes indicated. (f-k) Representative photomicrograph images of AC3-immunolabeled ventral DG sections. (l-p) Magnified images of AC3-immunoreactive cells. Scale bar in (k; 150 μm) pertains to (f-k), in (p; 25 μm) pertains to (l-p). *P<0.05, **P<0.01, as compared to respective ad libitum-fed, vehicle-treated control group. ^#P<0.05, comparing compound treatment.
Prolonged caloric restriction in wild-type mice elicits an antidepressant-like response in the FST (decreased immobility), whereas this effect is not observed in Ghsr-null mice. To investigate whether this might be related to differences in apoptosis in the DG, similar to that observed above following CSDS, Ghsr-null and wild-type littermates were exposed to ad libitum food access vs. 60% caloric restriction for 10 days. Five days prior to this exposure and throughout the 10-day feeding period, mice received either P7C3 or vehicle. On Day 16, FST performance was assessed, followed by sacrifice of the animals for quantification of AC3+ cells in the DG (FIG. 42, panel a).
The 60% calorie restriction protocol was performed as previously (M. Lutter et al., The orexigenic hormone ghrelin defends against depressive symptoms of chronic stress. Nat Neurosci 11, 752 (2008)). Mice received twice-daily injections of either P7C3 (20 mg/kg/d in divided doses) or vehicle 5 days prior to and during 10 days of calorie restriction or ad-lib feeding, replicating the injection protocol used for the CSDS studies. On Day 16, the forced swim test was performed for each mouse as done previously.

The mark [4] stands for this setting: caloric-restricted Ghsr-null mice.
Where [5] appears, read: caloric-restricted wild-type mice.

Entries after “also recorded” stand apart in the source; their conditions may differ.

Consider `OC(CNc1ccccc1)Cn1c2ccc(Br)cc2c2cc(Br)ccc21` (stereo not shown) [Example 45 Compound], for which the “doublecortin (DCX) staining of newborn neurons” value in data set [1] (20 mg/kg daily for 30 days by oral gavage) is recorded as “increased dramatically; also recorded: substantially increased”. Moreover, the “increase in BrdU+ cells compared to vehicle” value in data set [1] (5 days after BrdU pulse) stood at 25%. In addition, the “increase in abundance of BrdU+ cells in the dentate gyrus relative to vehicle” value in data set [1] (daily oral dose for 30 days starting 24 hours after BrdU pulse) is 5 fold. In addition, the “BrdU+ cells versus vehicle, short term” value in data set [1] (oral for 30 days, 1 hour or 1 day after BrdU pulse) was “did not lead to an elevation in the level of BrdU-positive cells relative to vehicle; also recorded: No significant differences”.

Consider `COc1cccc(NCC(F)Cn2c3ccc(Br)cc3c3cc(Br)ccc32)c1` (stereo not shown) [Example P7C3A20, N-(3-(3,6-dibromo-9H-carbazol-9-yl)-2-fluoropropyl)-3-methoxyaniline], for which the “toxicity to HeLa cells” value in the data set on HeLa cells is reported as “no hERG channel binding, histamine receptor binding or toxicity to HeLa cells”.

In the case of `OC(CNc1ccccc1)Cn1c2ccc(Br)cc2c2cc(Br)ccc21` (stereo not shown) [Example P7C3], in data set [2], the “increase of DG neurogenesis (BrdU labeling) over vehicle” value is given as “about 100%”. In data set [3] (setting [4]), the “AC3+ cells in the DG” value is “blocked the increase in apoptosis observed after caloric restriction” and the FST immobility result was “significantly decrease immobility”. In data set [3] (setting [5]), the “AC3+ cells in the DG” value is listed as “did not further reduce the number of AC3+ cells” and the FST immobility entry is “had no further effect on reducing immobility”.
